Source: patent US20250389728A1, “NOVEL CLASS OF TRIOXANE-BASED MS-CLEAVABLE CROSS-LINKERS TO ADVANCE PROTEIN-PROTEIN INTERACTION STUDIES USING CROSS-LINKING MASS SPECTROMETRY” (The Regents of the University of California, priority 2024, published 2025)

Legend:
[1] = target: BSA (Bos taurus, UniProt P02769); assay: TSTO cross-linking of BSA, LC-MSn
Protocol: The reaction was carried out for 1 h at RT, followed by quenching with ammonium bicarbonate. […] Cross-linked proteins were then digested in 8M urea buffer using LysC for 4 h at 37° C., followed by trypsin digestion at 37° C. overnight after diluting urea concentration to <1.5 M. The resulting peptide mixtures were extracted and desalted using C18 tips (Agilent) prior to MS analyses.
(§1) LC-MS^n analysis. LC-MS^n analysis of cross-linked peptides was performed using an UltiMate 3000 UPLC (Thermo Fisher Scientific) liquid chromatograph coupled on-line to an Orbitrap Fusion Lumos mass spectrometer (Thermo Fisher Scientific). Peptides were separated by reverse-phase on a 50 cm×75 μm I.D. Acclaim® PepMap RSLC column using gradients of 4% to 25% acetonitrile at a flow rate of 300 nL/min (solvent A: 100% H2O, 0.1% formic acid; solvent B: 100% acetonitrile, 0.1% formic acid) prior to MS^n analysis. For each MS^n acquisition, duty cycles consisted of one full Fourier transform scan mass spectrum (375-1500 m/z, resolution of 60,000 at m/z 400) followed by data-dependent MS^2 and MS^3 acquired at top speed in the Orbitrap and linear ion trap, respectively. Ions detected in MS^1 with 4+ or greater charge were selected and subjected to CID fragmentation (NCE 23%) in MS^2 and resulting ions were detected in the Orbitrap (resolution 30,000). Ions observed in MS^2 spectra with charge 2+ or greater were selected and fragmented in MS^3 using CID (NCE 35%) and detected in the linear ion trap in ‘Rapid’ mode. Ions selected for MS^3 were either based on abundance (top 4 or 5 most intense ions in MS^2) or targeted based on doublets with mass difference pairs (Δ=18.02 Da) corresponding to cross-linker remnant moiety water loss. For 26S proteasome cross-links, each acquisition was 200 min and ion selection for MS^3 was based on top intensity. For SEC-separated F24 fractions, the entire HpHt fraction was injected; for F26 fractions half of the HpHt fraction was injected for each LC-MS^n analysis. Each acquisition was 120 or 150 min, and both top intensity and mass difference-targeted methods were used for selecting ions for MS^3 analysis.
Spectrometric data were extracted from .raw files using PAVA. Extracted MS^3 spectra were subjected to protein database searching via Batch-Tag within a developmental version of Protein Prospector (v. 6.3.5, University of California, San Francisco) against a randomly concatenated SwissProt database consisting of 20,418 human proteins and their corresponding decoys. Mass tolerances for parent ions and fragment ions were set as ±15 ppm and 0.6 Da, respectively. Trypsin was set as the enzyme with three maximum missed cleavages allowed. Cysteine carbamidomethylation was selected as a constant modification, while protein N-terminal acetylation, methionine oxidation, and N-terminal conversion of glutamine to pyroglutamic acid were selected as variable modifications.

[2] = system: human 26S proteasomes; assay: TSTO cross-linking of affinity-purified 26S proteasomes, LC-MSn
Protocol: Cross-linked proteins were then digested in 8M urea buffer using LysC for 4 h at 37° C., followed by trypsin digestion at 37° C. overnight after diluting urea concentration to <1.5 M. The resulting peptide mixtures were extracted and desalted using C18 tips (Agilent) prior to MS analyses.
as §1, with “MS^3 analysis. […]” for “MS^3 analysis.”

Chain of BSA (P02769 25-607): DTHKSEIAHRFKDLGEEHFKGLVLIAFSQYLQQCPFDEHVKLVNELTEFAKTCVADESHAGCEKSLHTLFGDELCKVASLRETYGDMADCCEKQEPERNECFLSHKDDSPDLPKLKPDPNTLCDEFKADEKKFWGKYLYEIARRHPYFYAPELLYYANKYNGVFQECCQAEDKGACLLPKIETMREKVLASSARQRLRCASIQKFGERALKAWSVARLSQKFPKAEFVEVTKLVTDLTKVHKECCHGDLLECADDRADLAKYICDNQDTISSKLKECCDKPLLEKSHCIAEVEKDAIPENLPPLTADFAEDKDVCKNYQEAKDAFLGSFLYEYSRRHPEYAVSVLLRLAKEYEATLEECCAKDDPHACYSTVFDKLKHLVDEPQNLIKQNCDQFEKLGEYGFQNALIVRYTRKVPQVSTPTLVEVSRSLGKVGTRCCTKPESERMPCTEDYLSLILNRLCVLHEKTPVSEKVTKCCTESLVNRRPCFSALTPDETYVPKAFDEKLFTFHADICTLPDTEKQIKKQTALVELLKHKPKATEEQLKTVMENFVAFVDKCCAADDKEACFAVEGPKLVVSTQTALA

redundant cross-linked spectra matches (CSMs) ([1]; 1 mM TSTO, pH 7.4 PBS, 1 h RT): 823
unique CSMs ([1]; 1 mM TSTO, pH 7.4 PBS, 1 h RT): 167
tri-links share of total unique CSMs ([1]; 45/167): ~27%
overall mapped distance median (Cα-Cα) ([1]; mapped to PDB:4F5S): 21.1 Å
satisfaction rate of cross-links ≤35 Å ([1]; mapped to PDB:4F5S): 90%
share of unique CSMs that were tri-links ([2]; 0.75 mM TSTO on-bead): 41.3%
total unique CSMs ([2]; 0.75 mM TSTO on-bead, PBS pH 7.5, 1 h): 808
satisfaction rates (≤35 Å) of mapped tri-links and bi-links ([2]; mapped to PDB: 7QY7): ~90%
Compound: O=C(CCCC1OC(CCCC(=O)ON2C(=O)CCC2=O)OC(CCCC(=O)ON2C(=O)CCC2=O)O1)ON1C(=O)CCC1=O (centres unmarked) [TSTO, Tris(2,5-dioxopyrrolidin-1-yl) 4,4′,4″-(1,3,5-trioxane-2,4,6-triyl)tributanoate]
